Source: PubChem BioAssay AID248 (DTP/NCI, 2004)
“And” between values parts separate entries of the source, which are not always exact repeats. Identical values can stand only once. Toxic doses and inconclusive results are not listed. Cut-off read from the data, not from the text of the source: active = T/C of 150% or more; inactive = T/C below 125%. Square brackets hold non-standard residues; d marks the D form. Peptide text beside a SMILES is read from it. Ac5c = NC1(C(=O)O)CCCC1

Test system: L1210 leukemia ip in BDF1 mice, survival T/C
Assay: NCI In Vivo Anticancer Drug Screen. Data for tumor model L1210 Leukemia (intraperitoneal) in B6D2F1 (BDF1) mice
Conditions: endpoint: mean survival time, higher = longer survival
Procedure, shortened: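 Mice bearing the transplanted tumor received compound or vehicle. Survival of the treated group was divided by that of the vehicle-treated control group to give the ratio.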

[1] = dose: 100.0 mg/kg/injection, schedule: Q01DX001 (ip), vehicle: carboxymethylcellulose (CMC)
[2] = dose: 100.0 mg/kg/injection, schedule: Q04DX002 (ip), vehicle: saline with Tween-80
[3] = dose: 200.0 mg/kg/injection, schedule: Q04DX002 (ip), vehicle: saline with Tween-80
[4] = dose: 400.0 mg/kg/injection, schedule: Q04DX002 (ip), vehicle: saline with Tween-80
[5] = dose: 100.0 mg/kg/injection, schedule: Q01DX001 (ip), vehicle: saline
[6] = dose: 200.0 mg/kg/injection, schedule: Q01DX001 (ip), vehicle: saline
[7] = dose: 50.0 mg/kg/injection, schedule: Q04DX003 (ip), vehicle: saline
[8] = dose: 100.0 mg/kg/injection, schedule: Q04DX003 (ip), vehicle: saline
[9] = dose: 100.0 mg/kg/injection, schedule: Q01DX001 (ip), vehicle: saline with Tween-80
[10] = dose: 200.0 mg/kg/injection, schedule: Q01DX001 (ip), vehicle: saline with Tween-80
[11] = dose: 400.0 mg/kg/injection, schedule: Q01DX001 (ip), vehicle: saline with Tween-80
[12] = dose: 100.0 mg/kg/injection, schedule: Q01DX009 (ip), vehicle: Klucel (hydroxypropylcellulose) (HPC)
[13] = dose: 200.0 mg/kg/injection, schedule: Q01DX009 (ip), vehicle: Klucel (hydroxypropylcellulose) (HPC)
[14] = dose: 400.0 mg/kg/injection, schedule: Q01DX009 (ip), vehicle: Klucel (hydroxypropylcellulose) (HPC)
[15] = dose: 200.0 mg/kg/injection, schedule: Q04DX003 (ip), vehicle: saline
[16] = dose: 400.0 mg/kg/injection, schedule: Q04DX003 (ip), vehicle: saline

Measured: T/C

CCCNc1nc(N)[nH]c(=O)c1NC=O
inactive: dose: 55.0 mg/kg/injection, schedule: Q01DX Z (ip), vehicle: methylcellulose (MC) 105 % of control | dose: 83.0 mg/kg/injection, schedule: Q01DX Z (ip), vehicle: methylcellulose (MC) 109 % of control | dose: 125.0 mg/kg/injection, schedule: Q01DX Z (ip), vehicle: methylcellulose (MC) 109 % of control | dose: 180.0 mg/kg/injection, schedule: Q01DX Z (ip), vehicle: methylcellulose (MC) 97 % of control

Cc1cccc(NC(=O)N2CCN(c3ccccc3)CC2)c1
inactive: dose: 50.0 mg/kg/injection, schedule: Q01DX001 (ip), vehicle: carboxymethylcellulose (CMC) 106 % of control | [1] 101 % of control | dose: 200.0 mg/kg/injection, schedule: Q01DX001 (ip), vehicle: carboxymethylcellulose (CMC) 101 % of control | dose: 400.0 mg/kg/injection, schedule: Q01DX001 (ip), vehicle: carboxymethylcellulose (CMC) 104 % of control

N#C/C(=C\c1cccn1Cc1ccc2ccccc2c1)C(N)=O
inactive: [2] 104 % of control | [3] 96 % of control | [4] 93 % of control

Nc1ncnc2c1ncn2[C@H]1CC[C@@H](CO)C1
inactive: [5] 106 % of control | [6] 97 % of control

CCCCCCCCCCOB(OCCCCCCCCCC)OCCCCCCCCCC
inactive: dose: 25.0 mg/kg/injection, schedule: Q01DX009 (ip), vehicle: saline with Tween-80 93 % of control | dose: 50.0 mg/kg/injection, schedule: Q01DX009 (ip), vehicle: saline with Tween-80 96 % of control | dose: 100.0 mg/kg/injection, schedule: Q01DX009 (ip), vehicle: saline with Tween-80 96 % of control

O/N=C1\CCCc2sccc21
inactive: dose: 100.0 mg/kg/injection, schedule: Q01DX001 (ip), vehicle: steriod suspending solution 114 % of control | dose: 200.0 mg/kg/injection, schedule: Q01DX001 (ip), vehicle: steriod suspending solution 98 % of control | dose: 400.0 mg/kg/injection, schedule: Q01DX001 (ip), vehicle: steriod suspending solution 98 % of control

CC(N)Cc1ccccc1 (stereo unspecified)
inactive: dose: 1.17 mg/kg/injection, schedule: Q04DX003 (ip), vehicle: saline 98 % of control | dose: 2.34 mg/kg/injection, schedule: Q04DX003 (ip), vehicle: saline 98 % of control | dose: 2.5 mg/kg/injection, schedule: Q04DX003 (ip), vehicle: saline 100 % of control | dose: 4.68 mg/kg/injection, schedule: Q01DX009 (ip), vehicle: saline 94 % of control | dose: 4.68 mg/kg/injection, schedule: Q04DX003 (ip), vehicle: saline 93 % of control | dose: 5.0 mg/kg/injection, schedule: Q04DX003 (ip), vehicle: saline 96 % of control | dose: 6.25 mg/kg/injection, schedule: Q01DX009 (ip), vehicle: saline 103 % of control | dose: 9.37 mg/kg/injection, schedule: Q01DX009 (ip), vehicle: saline 93 % of control | dose: 9.37 mg/kg/injection, schedule: Q04DX003 (ip), vehicle: saline 106 % of control | dose: 10.0 mg/kg/injection, schedule: Q04DX003 (ip), vehicle: saline 97 % of control | dose: 12.5 mg/kg/injection, schedule: Q01DX001 (ip), vehicle: saline 96 % of control | dose: 12.5 mg/kg/injection, schedule: Q01DX009 (ip), vehicle: saline 97 % of control | dose: 18.74 mg/kg/injection, schedule: Q04DX003 (ip), vehicle: saline 107 % of control | dose: 18.75 mg/kg/injection, schedule: Q01DX009 (ip), vehicle: saline 87 % of control | dose: 18.75 mg/kg/injection, schedule: Q04DX003 (ip), vehicle: saline 97 % of control | dose: 20.0 mg/kg/injection, schedule: Q04DX003 (ip), vehicle: saline 97 % of control | dose: 25.0 mg/kg/injection, schedule: Q01DX001 (ip), vehicle: saline 101 % of control | dose: 25.0 mg/kg/injection, schedule: Q01DX009 (ip), vehicle: saline 100 % of control | dose: 25.0 mg/kg/injection, schedule: Q04DX003 (ip), vehicle: saline 100 % of control | dose: 37.48 mg/kg/injection, schedule: Q03HX024 (ip), vehicle: saline 96 % of control | dose: 37.5 mg/kg/injection, schedule: Q01DX009 (ip), vehicle: saline 103 % of control | dose: 37.5 mg/kg/injection, schedule: Q04DX003 (ip), vehicle: saline 108 % of control | dose: 40.0 mg/kg/injection, schedule: Q04DX003 (ip), vehicle: saline 103 % of control | dose: 50.0 mg/kg/injection, schedule: Q01DX001 (ip), vehicle: saline 109 % of control | dose: 50.0 mg/kg/injection, schedule: Q01DX009 (ip), vehicle: saline 101 % of control | [7] 100 % of control | dose: 75.0 mg/kg/injection, schedule: Q04DX003 (ip), vehicle: saline 100 % of control | [5] 102 % of control | [8] 105 % of control

Nc1ccn(CCCOc2ccccc2)c(=O)n1
inactive: [9] 97 % of control | [10] 96 % of control | [11] 100 % of control

BrCc1cccc2ccccc12
inactive: dose: 25.0 mg/kg/injection, schedule: Q01DX009 (ip), vehicle: acetone 96 % of control | dose: 50.0 mg/kg/injection, schedule: Q01DX009 (ip), vehicle: acetone 95 % of control | [7] 90 % of control | [5] 98 % of control | dose: 100.0 mg/kg/injection, schedule: Q01DX009 (ip), vehicle: acetone 95 % of control | [8] 87 % of control | [6] 102 % of control

CCCCCCC(=O)/C=C/C=C/c1ccccc1
inactive: [12] 97 % of control | dose: 100.0 mg/kg/injection, schedule: Q04DX003 (ip), vehicle: Klucel (hydroxypropylcellulose) (HPC) 98 % of control | [13] 91 % of control | dose: 200.0 mg/kg/injection, schedule: Q04DX003 (ip), vehicle: Klucel (hydroxypropylcellulose) (HPC) 98 % of control | [14] 100 % of control | dose: 400.0 mg/kg/injection, schedule: Q04DX003 (ip), vehicle: Klucel (hydroxypropylcellulose) (HPC) 94 % of control

CCN(CC)CCNC(c1ccccc1)C(Cl)(Cl)Cl (stereo unspecified)
inactive: [5] 100 % of control

CC(=O)Nc1ncnc(NC(C)=O)c1N=O
inactive: [5] 93 % of control | [6] 102 % of control

NC1(C(=O)NCC(=O)O)CCCC1 (H-[Ac5c]-Gly-OH)
inactive: [8] 104 % of control | [15] 100 % of control

CN(CN(C)NC(=O)c1ccccc1)NC(=O)c1ccccc1
inactive: [1] 98 % of control

CC1(C)CCC2=C(O1)c1ccccc1C(=O)C2=O
inactive: dose: 25.0 mg/kg/injection, schedule: Q01DX001 (ip), vehicle: Klucel (hydroxypropylcellulose) (HPC) 102 % of control | dose: 50.0 mg/kg/injection, schedule: Q01DX001 (ip), vehicle: Klucel (hydroxypropylcellulose) (HPC) 98 % of control | dose: 100.0 mg/kg/injection, schedule: Q01DX001 (ip), vehicle: Klucel (hydroxypropylcellulose) (HPC) 94 % of control and 102 % of control

COc1cc(C=Nc2ccc(Oc3ccc(Cl)cc3)cc2)cc(OC)c1OC
inactive: [12] 102 % of control | [13] 96 % of control

O=S(=O)(Nc1ccc2ccccc2c1)c1ccccc1
inactive: [9] 103 % of control | [10] 97 % of control | [11] 97 % of control

COc1ccc(C2NC(=O)CCC2[N+](=O)[O-])cc1OC (stereo unspecified)
inactive: [2] 91 % of control | [3] 91 % of control | [4] 94 % of control

Br/C(=C(/Br)c1ccccc1)c1ccccc1
inactive: dose: 50.0 mg/kg/injection, schedule: Q01DX009 (ip), vehicle: Klucel (hydroxypropylcellulose) (HPC) 105 % of control | [12] 91 % of control | [13] 102 % of control

COC(=O)C1C2CC/C=C\CCC21 (stereo unspecified)
inactive: [12] 91 % of control | [13] 87 % of control | [14] 91 % of control

COc1cc(C)c2c(c1OC)C(=O)CC2
inactive: [5] 94 % of control | [6] 105 % of control | dose: 400.0 mg/kg/injection, schedule: Q01DX001 (ip), vehicle: saline 88 % of control

O=C(COc1ccc(Cl)c(Cl)c1)Nc1ccc[n+](Cc2ccc(Cl)c(S(=O)(=O)F)c2)c1
inactive: [8] 106 % of control | [15] 94 % of control | [16] 105 % of control

Cc1cc(C)c(C(C)C)cc1C(C)C
inactive: [8] 100 % of control | [15] 100 % of control | [16] 90 % of control
